What was measured:
Format in all cases: in vivo
Lolium perenne (LOLPE) [1] = test: Post-emergence herbicidal activity, glasshouse pot test; conditions: Lolium perenne, 312 h, rate 250 g/ha, evaluated after 13 days, read-out: Post-emergence activity LOLPE (100=total damage to plant; 0=no damage to plant)
Outline: (§1)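 Seeds sown in standard soil in pots were sprayed 1 day after sowing (pre-emergence) or after 8 days' cultivation (post-emergence) with aqueous spray from acetone/water (50:50) formulation containing 0.5% Tween 20. Plants grew at 24/16° C day/night, 14 h light, 65% humidity, watered twice daily. Damage scored after 13 days, 0–100.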

Avena fatua (AVEFA) [2] = test: as above; conditions: Avena fatua, 312 h, rate 250 g/ha, evaluated after 13 days, read-out: Post-emergence activity AVEFA (100=total damage to plant; 0=no damage to plant)
Outline: as §1

[3] = system: Alopecurus myosuroides (ALOMY); test: as above; conditions: Alopecurus myosuroides, 312 h, rate 250 g/ha, evaluated after 13 days, read-out: Post-emergence activity ALOMY (100=total damage to plant; 0=no damage to plant)
Outline: as §1

[4] = system: Echinochloa crus-galli (ECHCG); test: as above; conditions: Echinochloa crus-galli, 312 h, rate 250 g/ha, evaluated after 13 days, read-out: Post-emergence activity ECHCG (100=total damage to plant; 0=no damage to plant)
Outline: as §1

Lolium perenne (LOLPE) [5] = test: Pre-emergence herbicidal activity, glasshouse pot test; conditions: Lolium perenne, 312 h, Rate 250 g/ha, evaluated after 13 days, read-out: Pre-emergence activity LOLPE (100=total damage to plant; 0=no damage to plant)
Outline: as §1

Avena fatua (AVEFA) [6] = test: as above; conditions: Avena fatua, 312 h, Rate 250 g/ha, evaluated after 13 days, read-out: Pre-emergence activity AVEFA (100=total damage to plant; 0=no damage to plant)
Outline: as §1

[7] = system: Alopecurus myosuroides (ALOMY); test: as above; conditions: Alopecurus myosuroides, 312 h, Rate 250 g/ha, evaluated after 13 days, read-out: Pre-emergence activity ALOMY (100=total damage to plant; 0=no damage to plant)
Outline: as §1

[8] = system: Echinochloa crus-galli (ECHCG); test: as above; conditions: Echinochloa crus-galli, 312 h, Rate 250 g/ha, evaluated after 13 days, read-out: Pre-emergence activity ECHCG (100=total damage to plant; 0=no damage to plant)
Outline: as §1

Compound | pest or weed control at 250 g/ha (Lolium perenne (LOLPE) [1]; glasshouse) [%] | pest or weed control at 250 g/ha (Avena fatua (AVEFA) [2]; glasshouse) [%] | pest or weed control at 250 g/ha ([3]; glasshouse) [%] | pest or weed control at 250 g/ha ([4]; glasshouse) [%] | pest or weed control at 250 g/ha (Lolium perenne (LOLPE) [5]; pre-emergence spray) [%] | pest or weed control at 250 g/ha (Avena fatua (AVEFA) [6]; pre-emergence spray) [%] | pest or weed control at 250 g/ha ([7]; pre-emergence spray) [%] | pest or weed control at 250 g/ha ([8]; pre-emergence spray) [%] | pest or weed control at 250 g/ha (Lolium perenne (LOLPE) [1]) [%] | pest or weed control at 250 g/ha (Avena fatua (AVEFA) [2]) [%] | pest or weed control at 250 g/ha [3] [%] | pest or weed control at 250 g/ha [4] [%] | pest or weed control at 250 g/ha (Lolium perenne (LOLPE) [5]; pre-emergence) [%] | pest or weed control at 250 g/ha (Avena fatua (AVEFA) [6]; pre-emergence) [%] | pest or weed control at 250 g/ha ([7]; pre-emergence) [%] | pest or weed control at 250 g/ha ([8]; pre-emergence) [%]
CCc1ccc(Oc2ccc(C(F)(F)F)c(Cl)c2)cc1C1=C(O)[C@H]2CC[C@H](C2)C1=O [Example A-332] | 100 | 100 | 100 | 100 | 100 | 70 | 80 | 100 |  |  |  |  |  |  |  | 
CCc1ccc(Oc2ccc([N+](=O)[O-])c(Cl)c2)cc1C1=C(O)[C@H]2CC[C@H](C2)C1=O [Example A-333] | 60 | 70 | 60 | 100 | 90 | 40 | 50 | 100 |  |  |  |  |  |  |  | 
CCc1ccc(Oc2ccc(C(F)(F)F)cn2)cc1C1=C(O)[C@H]2CC[C@H](C2)C1=O [Example A-334] | 100 | 100 | 90 | 100 | 100 | 100 | 100 | 100 |  |  |  |  |  |  |  | 
CCc1ccc(Oc2ncc(C(F)(F)F)cc2Cl)cc1C1=C(O)[C@H]2CC[C@H](C2)C1=O [Example A-335] | 100 | 90 | 100 | 100 | 100 | 90 | 100 | 100 |  |  |  |  |  |  |  | 
CCc1ccc(Oc2ncc(Cl)cc2Cl)cc1C1=C(O)[C@H]2CC[C@H](C2)C1=O [Example A-336] | 100 | 80 | 90 | 100 | 100 | 80 | 90 | 100 |  |  |  |  |  |  |  | 
CCc1ccc(Oc2nc3ccccc3s2)cc1C1=C(O)[C@H]2CC[C@H](C2)C1=O [Example A-337] | 90 | 90 | 90 | 100 | 100 | 70 | 90 | 100 |  |  |  |  |  |  |  | 
CCc1ccc(Oc2nc3ccc(Cl)cc3s2)cc1C1=C(O)[C@H]2CC[C@H](C2)C1=O [Example A-338] | 100 | 100 | 100 | 100 | 100 | 80 | 90 | 100 |  |  |  |  |  |  |  | 
CCc1ccc(Oc2nc3cc(Cl)ccc3s2)cc1C1=C(O)[C@H]2CC[C@H](C2)C1=O [Example A-339] | 100 | 90 | 100 | 100 | 90 | 80 | 100 | 100 |  |  |  |  |  |  |  | 
CCc1ccc(Oc2ccc(C(F)(F)F)c(C#N)c2)cc1C1=C(O)[C@H]2CC[C@H](C2)C1=O [Example A-340] | 70 | 80 | 60 | 100 | 70 | 50 | 80 | 100 |  |  |  |  |  |  |  | 
CCc1ccc(Oc2ncc(C(F)(F)F)cc2C(F)(F)F)cc1C1=C(O)[C@H]2CC[C@H](C2)C1=O [Example A-341] | 100 | 100 | 90 | 100 | 100 | 90 | 100 | 100 |  |  |  |  |  |  |  | 
CCc1ccc(Oc2nc3ccc([N+](=O)[O-])cc3s2)cc1C1=C(O)[C@H]2CC[C@H](C2)C1=O [Example A-342] | 60 | 70 | 60 | 100 | 100 | 60 | 90 | 100 |  |  |  |  |  |  |  | 
CCc1ccc(Oc2nc3ccc(OC)cc3s2)cc1C1=C(O)[C@H]2CC[C@H](C2)C1=O [Example A-343] | 80 | 80 | 50 | 100 | 100 | 50 | 50 | 100 |  |  |  |  |  |  |  | 
CCc1ccc(Oc2ccc(C(F)(F)F)cc2[N+](=O)[O-])cc1C1=C(O)[C@H]2CC[C@H](C2)C1=O [Example A-344] | 70 | 90 | 60 | 90 | 80 | 30 | 40 | 100 |  |  |  |  |  |  |  | 
CCc1ccc(Oc2nc3c(Cl)cc(Cl)cc3s2)cc1C1=C(O)[C@H]2CC[C@H](C2)C1=O [Example A-345] | 100 | 100 | 80 | 100 | 100 | 60 | 90 | 100 |  |  |  |  |  |  |  | 
CCc1ccc(Oc2ncc(Cl)cc2C(F)(F)F)cc1C1=C(O)[C@H]2CC[C@H](C2)C1=O [Example A-346] |  |  |  |  |  |  |  |  | 90 | 90 | 70 | 100 | 100 | 90 | 100 | 100
CC1(C)OC(C)(C)C(O)=C(c2cc(Oc3ccc(Cl)c(F)c3)ccc2C2CC2)C1=O [Example A-347] |  |  |  |  |  |  |  |  | 100 | 50 | 90 | 100 | 100 | 10 | 70 | 100
CC1(C)OC(C)(C)C(O)=C(c2cc(Oc3ccc(Cl)cc3F)ccc2C2CC2)C1=O [Example A-348] |  |  |  |  |  |  |  |  | 90 | 60 | 100 | 100 | 100 | 10 | 60 | 100
CC1(C)OC(C)(C)C(O)=C(c2cc(Oc3ccc(Cl)cc3)ccc2C2CC2)C1=O [Example A-349] |  |  |  |  |  |  |  |  | 80 | 0 | 60 | 100 | 90 | 10 | 40 | 100
